{"source": "patent US8569242B2", "about": "“Method of treating degenerative disorders of the nervous system” (The Regents of the University of California, priority 2005, dated 2013)", "key": {"[1]": {"test_system": "blood coagulation", "test": "Hematological analyses: plasma clotting time and prothrombin time after intranasal peptide", "assay_type": "in vivo, mouse", "conditions": "30 μg and 90 μg intranasally daily for seven days", "protocol": "Hematological Analyses. Citrated plasma was prepared from mice administered intranasally 30 μg or 90 μg of γ^377-395 peptide or saline control daily for seven days. Plasma clotting times were measured by combining 10 μl of citrated plasma with 10 μl of 2 U/ml bovine thrombin (Enzyme Research Laboratories, South Bend, Ind., USA) and 40 mM. CaCl2 in a weigh boatfloating in a 37° C. water bath. Time to clot was determined by mixing with a toothpick. Plasma thrombin times were established as described previously (15). Fibrin polymerization was evaluated by standard turbidity assays using plasma. Briefly, citrate plasma (diluted tenfold in 20 mM HEPES, pH 7.4, containing 0.15 M NaCl and 5 mM-amino caproic acid) was combined with bovine thrombin (final concentration 0.2 U/ml; Enzyme Research Laboratories, South Bend, Ind., USA), and Ca^2+ (10 mM), and OD350 measurements were taken every 30 seconds."}, "[2]": {"test_system": "PLP139-151 EAE in SJL/J mice", "test": "Remitting-relapsing PLP139-151 EAE, intranasal γ^377-395 peptide after first paralytic episode", "assay_type": "in vivo, mouse", "protocol": "(§1) Induction of EAE. EAE was induced in 6 week old female SJL/J or C57BL/6 mice by subcutaneous immunization with 150 μg PLP139-151 (HSLGKWLGHPDKF) (SEQ ID NO: 5). American Peptide Company and Azco Pharmchem, San Jose, Calif.) or 50 μg MOG35-55 ([…]) (SEQ ID NO: 6), Sigma-Aldrich, St. Louis, Mo.) in complete Freund's adjuvant (Sigma-Aldrich, St. Louis, Mo.) supplemented with […] heat inactivated mycobacterium tuberculosis H37Ra (Difco Laboratories, Detroit, Mich.). Mice were injected intravenously with 200 ng pertussis toxin (Sigma-Aldrich, St. Louis, Mo.) on days 0 and 2 of the immunization. Mice were scored daily. 0: no symptoms, 1: loss of tail tone, 2: ataxia, 3: hindlimb paralysis, 4: hindlimb and forelimb paralysis, 5: moribund Data are represented as the mean clinical score and are mean±SEM. Statistical calculations were made by using Student's t test.\nIntranasal γ^377-395 peptide administration. Fibrinogen γ^377-395 peptide (YSMKETTMKIIPFNRLSIG) (SEQ ID NO: 2), Azco Pharmchem, San Jose, Calif.) was resuspended in 0.9% NaCl at a concentration of 3 mg/mL. Peptides were aliquoted as single doses and stored at […]. Mice were administered 5 μL of peptide or 0.9% NaCI, as a control, in each nare daily using a P10 micropipettor (Gilson, Middleton, Wis.) beginning after the peak of the first paralytic episode.\n(§2) Histopathology. Histopathologic analysis and quantification of inflammation and demyelination in mouse tissue was performed on cryostat or paraffin sections as described (57). Sections were stained with luxol fast blue and nuclear red. Spinal cord sections were fixed with 2% PFA for 10 minutes at 4° C. and immunostained with a sheep anti-fibrinogen antibody (1:200, US Biological, Swampscott, Mass.), rat anti-CD11b (1:5, Chemicon), von Willebrand Factor (1:1000, Dakocytomation, Glostrup, Denmark), iNOS (polyclonal Chemicon, Temecula, Calif., 1:750), Mac-3 (rat-anti-mouse, Pharmingen, San Diego, Calif., 1:200), CNPase (monoclonal, Sternberger monoclonals, Lutherville, Md., 1:2000). For human MS, paraffin embedded material was obtained from the Archives of the Center for Brain Research, Medical University of Vienna. Double immunofluorescence was performed with antibodies against CD68 and fibrin. Images were collected using an Axioplan 2 Zeiss microscope with an Axiocam HRc camera or were processed for confocal microscopy using Olympus and Zeiss confocal microscopes.\n(§3) Rotarod behavior test. The rotarod assay was performed on a TSE accelerating Rotarod apparatus (TSE Technical and Scientific Equipment GmbH) as described (58). Rotarod assays were conducted with a 300 second maximum time limit and means were collected for at least three trials. Statistical calculations were made by using Students t test."}, "[3]": {"molecular_target": "Mac-1 (Homo sapiens, UniProt P11215)", "conditions": "from cited biochemical studies; cited from earlier work"}, "[4]": {"test_system": "PLP139-151 EAE in SJL/J mice", "test": "PLP139-151 EAE after vaccination with γ^377-395 peptide", "assay_type": "in vivo, mouse", "protocol": "as §1\nFibrinogen γ^377-395 peptide vaccination. Vaccination was performed as described (56) with the following modifications. Five week old female SJL/J mice were immunized with 200 μg fibrinogen γ^377-395 peptide (YSMKETTMKIIPFNRLSIG) (SEQ ID NO: 2), Azco Pharmchem, San Jose, Calif.) emulsified with an equal volume of incomplete freund's adjuvant (Sigma-Aldrich, St. Louis, Mo.). Mice were immunized four times in alternating rear flanks over the course of two weeks. Control animals were immunized with incomplete Freund's adjuvant.\nas §2, §3"}, "[5]": {"conditions": "30 μg i.n. daily, day 30 after immunization"}}, "note": "“Also recorded” adds a separate entry of the source.", "data": [{"substance": "tyr-ser-met-lys-lys-thr-thr-met-lys-ile-ile-pro-phe-asn-arg-leu-thr-ile-gly (YSMKKTTMKIIPFNRLTIG) (listed as Homo sapiens) [γ^377-395 peptide]", "values": [{"measurement": "in vivo blood clotting time", "setting": "[1]", "result": "does not affect; also recorded: Neither dose affected"}, {"measurement": "prothrombin time", "setting": "[1]", "result": "does not affect; also recorded: Neither dose affected"}, {"measurement": "increase of motor functions vs control mice", "setting": "[2]; 30 μg i.n. daily, after the first relapse on day 29", "result": 1.4, "unit": "fold"}, {"measurement": "reduction in Mac-3 (microglia/macrophage marker) immunostaining", "setting": "[2]; [5]", "result": 2, "unit": "fold"}, {"measurement": "reduction in iNOS immunostaining", "setting": "[2]; [5]", "result": 4.2, "unit": "fold"}, {"measurement": "relapse of paralysis (clinical score)", "setting": "[2]; 30 μg intranasally daily after first paralytic episode, n=14 vs control n=13", "result": "did not show a relapse"}, {"measurement": "T cell infiltration", "setting": "[2]; peptide-treated vs control", "result": "no major differences"}, {"measurement": "blocking of fibrin(ogen) binding to Mac-1 (CD11b)", "setting": "[3]", "result": "blocks"}, {"measurement": "vaccinated mice that developed EAE", "setting": "[4]; 8/15, all control mice 15/15, 200 μg peptide in IFA four times before EAE induction", "result": 53, "unit": "%"}, {"measurement": "rotarod: increase in motor strength and coordination vs control mice", "setting": "[4]; vaccinated mice", "result": 76, "unit": "%"}, {"measurement": "histopathology index, brain", "setting": "[4]; vaccinated mice, control 2.3±1", "result": "1.5±2"}, {"measurement": "histopathology index, spinal cord", "setting": "[4]; vaccinated mice, control 12±5.2", "result": "6.5±5.9"}, {"measurement": "average clinical score", "setting": "[4]; vaccinated mice, control group 2.5, scale 0-5", "result": 1.1}]}]}
